Here are results for 15 molecules from PubChem BioAssay (NCI).

The structures appear in SMILES notation.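 A five-concentration, 48-hour dose response in 96-well plates underlies each endpoint, interpolated linearly between surrounding concentrations. At the GI50, growth is halved. The concentration for full growth arrest is given as TGI.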

Some test systems named below: CAKI-1 renal; CCRF-CEM leukemia; NCI-H23 lung; SF-268 CNS; SNB-19 CNS; TK-10 renal; U251 CNS; UACC-62 melanoma; UO-31 renal; MDA-MB-231 breast.
Common to all, as to experiment: NCI anticancer screen, dose series, 48 h

As to `Nc1c(C(=O)NC23CC4CC(CC(C4)C2)C3)[n+]([O-])c2ccccc2[n+]1[O-]`, the TGI in the assay on CAKI-1 renal, with CCRF-CEM leukemia, in the assay on NCI-H23 lung, in the assay with SF-268 CNS, in the assay with SNB-19 CNS and with TK-10 renal was over 100 µM in each case. Further, the TGI in the assay on U251 CNS, in the assay on UACC-62 melanoma and in the assay with UO-31 renal was over 100 µM in each case.

Take `ClC1c2ccccc2C2(c3ccccc3)OOC1(c1ccccc1)O2` (centres undefined): the TGI in the assay with CAKI-1 renal turned out to be 6.19 µM; with NCI-H23 lung, 3.57 µM; in the assay on SF-268 CNS, 4.19 µM; in the assay with SNB-19 CNS it was 3.21 µM; in the assay with TK-10 renal, 4.4 µM; in the assay on U251 CNS, 3.59 µM. Moreover, the TGI in the assay on UACC-62 melanoma came out at 3.66 µM; in the assay with UO-31 renal it was 3.06 µM.

On to `CCSc1ccc([C@@H]2[C@@H](N)C(=O)N2c2cc(OC)c(OC)c(OC)c2)cc1`, for which the GI50 with CCRF-CEM leukemia was 0.0439 µM; in the assay with MDA-MB-231 breast, 0.376 µM; with NCI-H23 lung it was 14.3 µM; in the assay on SF-268 CNS, 0.0872 µM; in the assay on SNB-19 CNS it was 0.0715 µM; with TK-10 renal it was 30.6 µM. Further, the GI50 in the assay with U251 CNS is 0.061 µM; in the assay on UACC-62 melanoma, 0.0451 µM; in the assay on UO-31 renal it was 0.59 µM. Besides, the TGI in the assay with CCRF-CEM leukemia, in the assay on MDA-MB-231 breast, in the assay on NCI-H23 lung, in the assay with SF-268 CNS, with SNB-19 CNS and with TK-10 renal was over 100 µM in each case. Also, the TGI in the assay with U251 CNS, in the assay on UACC-62 melanoma and in the assay with UO-31 renal was over 100 µM in each case.

In the case of `CC(O)C(NC(=O)c1ccccc1)C(=O)N(Cc1ccccc1)Cc1ccccc1` (centres undefined), the TGI with CAKI-1 renal is 49.9 µM; in the assay with CCRF-CEM leukemia, over 100 µM; with NCI-H23 lung it was over 100 µM; in the assay with SF-268 CNS it was over 100 µM; in the assay on SNB-19 CNS, over 100 µM; in the assay on TK-10 renal, over 100 µM. Also, the TGI with U251 CNS, in the assay with UACC-62 melanoma and with UO-31 renal was over 100 µM each time.

Take `CCC(C)c1cccc(C)c1NC(=O)C(=O)Cc1nc2ccccc2s1` (centres undefined): the TGI with CAKI-1 renal, in the assay with CCRF-CEM leukemia, in the assay with NCI-H23 lung, with SF-268 CNS, in the assay on SNB-19 CNS and with TK-10 renal was over 100 µM each time. The TGI in the assay with U251 CNS, in the assay with UACC-62 melanoma and with UO-31 renal was over 100 µM in each case.

Turning to `CN(C)CCNC(=O)c1c2ccccc2cc2ccccc12`, the TGI in the assay on CCRF-CEM leukemia, with NCI-H23 lung, with SF-268 CNS, in the assay with SNB-19 CNS, in the assay on TK-10 renal and with U251 CNS was over 100 µM in each case. Besides, the TGI with UACC-62 melanoma is 53.4 µM; in the assay on UO-31 renal, over 100 µM.

Consider `C[N+](C)(C)CC(CC(=O)[O-])C1CC1` (centres undefined), for which the TGI in the assay on CAKI-1 renal, with CCRF-CEM leukemia, with NCI-H23 lung, in the assay on SF-268 CNS, with SNB-19 CNS and in the assay on TK-10 renal was over 100 µM throughout. Also, the TGI in the assay on U251 CNS, with UACC-62 melanoma and in the assay with UO-31 renal was over 100 µM each time.

On to `O=c1ccn(C2(CO)C=C(CO)C(O)C2O)c(=O)[nH]1` (centres undefined), for which the TGI in the assay on CAKI-1 renal, in the assay on SF-268 CNS, with SNB-19 CNS, in the assay on TK-10 renal, in the assay on U251 CNS and in the assay with UACC-62 melanoma was over 25.7 µM in each case. The molecule further returned a TGI with UO-31 renal of over 25.7 µM.

Take `CNc1ccc([N+](=O)[O-])c2c(NCCCN(C)C)ccnc12`: the TGI in the assay on CAKI-1 renal, with CCRF-CEM leukemia, in the assay on NCI-H23 lung, in the assay on SF-268 CNS, in the assay on SNB-19 CNS and with TK-10 renal was over 100 µM in each case. Further, the TGI in the assay with U251 CNS and in the assay on UO-31 renal was over 100 µM in each case.

As to `O=C(Oc1ccc2c(-c3ccccc3)c(C(=O)Nc3ccc(Cl)cc3)c(=O)oc2c1)c1ccccc1`, the TGI in the assay on CCRF-CEM leukemia, in the assay on NCI-H23 lung, with SNB-19 CNS, in the assay with TK-10 renal, with U251 CNS and in the assay on UACC-62 melanoma was over 100 µM each time. The molecule also gave a TGI in the assay with UO-31 renal of over 100 µM.

Turning to `CN1C(=O)CCC1c1ccc2c(c1)oc(=O)n2C` (centres undefined), the TGI in the assay on CAKI-1 renal, with CCRF-CEM leukemia, with NCI-H23 lung, in the assay with SF-268 CNS, with SNB-19 CNS and in the assay with TK-10 renal was over 100 µM throughout. For the same molecule, the TGI in the assay on U251 CNS, with UACC-62 melanoma and in the assay with UO-31 renal was over 100 µM each time.

For the molecule `CCCC(C)c1c(Cl)nc(Cl)nc1Cl` (centres undefined), the TGI is over 100 µM in the assay with CCRF-CEM leukemia; over 100 µM in the assay on MDA-MB-231 breast; 18 µM with NCI-H23 lung; over 100 µM in the assay with SF-268 CNS; 35.6 µM in the assay on SNB-19 CNS; 37.4 µM in the assay on TK-10 renal. In addition, the TGI worked out at 21.2 µM in the assay on U251 CNS and 34.7 µM in the assay with UO-31 renal.

As for `NC(CCc1ncc(-c2ccccc2)s1)C(=O)O` (centres undefined), the TGI in the assay on CAKI-1 renal, with CCRF-CEM leukemia, with NCI-H23 lung, with SNB-19 CNS, in the assay with TK-10 renal and with U251 CNS was over 100 µM throughout. Also, the TGI in the assay on UACC-62 melanoma and with UO-31 renal was over 100 µM in each case.

`CC(C)CN1CC(C)C(=O)NC1=O` (centres undefined): the TGI in the assay with CAKI-1 renal, in the assay on CCRF-CEM leukemia, in the assay with NCI-H23 lung, in the assay with SF-268 CNS, in the assay with SNB-19 CNS and in the assay with TK-10 renal was over 100 µM in each case. The TGI in the assay with U251 CNS, in the assay on UACC-62 melanoma and in the assay with UO-31 renal was over 100 µM throughout.

In the case of `C=C1CCC2C(C)(CO)C(O)CCC2(C)C1C/C=C1/CCOC1=O` (centres undefined), the TGI in the assay on CAKI-1 renal, in the assay with CCRF-CEM leukemia, in the assay on NCI-H23 lung, in the assay with SNB-19 CNS, in the assay on TK-10 renal and in the assay on U251 CNS was over 100 µM in each case. Besides, the TGI in the assay on UACC-62 melanoma and with UO-31 renal was over 100 µM throughout.
